Data on seven compounds can be found in paper PMC10888562 (International Journal of Molecular Sciences, 2024).

Assay [1] relates to cisplatin-resistant ADDP ovarian variant. Also on record: method as in PMID 36142383, PMID 37173934, PMID 36296713. The following applies: cited from earlier work.
The next assay concerns SJ-G2 glioblastoma. More on the design: method as in PMID 36142383, PMID 37173934, PMID 36296713. The following applies: cited from earlier work.
The subject of a further assay is BE2-C neuroblastoma. More on the design: method as in PMID 36142383, PMID 37173934, PMID 36296713. The following applies: cited from earlier work.
Another assay deals with A431 skin. More on the design: method as in PMID 36142383, PMID 37173934, PMID 36296713. The following applies: cited from earlier work.
The test system of another assay is MCF-7 breast. Also on record: method as in PMID 36142383, PMID 37173934, PMID 36296713. The following applies: cited from earlier work.
The next assay has as its system U87 glioblastoma. Also on record: method as in PMID 36142383, PMID 37173934, PMID 36296713. The following applies: cited from earlier work.
Another assay concerns MIA pancreas. Also on record: method as in PMID 36142383, PMID 37173934, PMID 36296713. The following applies: cited from earlier work.
Assay [2] deals with multiple human cell lines. Also on record: method as in PMID 36142383, PMID 37173934, PMID 36296713. The following applies: average over all cell lines; cited from earlier work.
In the next assay the test system is Du145 prostate. More on the design: method as in PMID 36142383, PMID 37173934, PMID 36296713. The following applies: cited from earlier work.
The test system of a further assay is HT29 colon. More on the design: method as in PMID 36142383, PMID 37173934, PMID 36296713. The following applies: cited from earlier work.
A further assay relates to H460 lung. Also on record: method as in PMID 36142383, PMID 37173934, PMID 36296713. The following applies: cited from earlier work.
In a further assay the test system is A2780 ovarian. Also on record: method as in PMID 36142383, PMID 37173934, PMID 36296713. The following applies: cited from earlier work.
Assay [3] relates to HT29 colon cells. More on the design: method as in PMID 36142383, PMID 37173934, PMID 36296713. The following applies: cited from earlier work.
Assay [4] has as its system HT29 colon cells. Put plainly: TMRE mitochondrial membrane potential (MtMP) assay. The following applies: GI50 drug concentration (FCCP 20 μM). The class given is cell-based, human. As for the experimental part: This was achieved by determining if the overproduction of ROS induced by these complexes impacts mitochondrial activity by altering MtMP. Briefly, there is evidence showing a strong correlation between increased levels of ROS and mitochondrial impairment. […] The MtMP changes recorded are measured as RFU. […] To investigate the MtMP changes in HT29 treated cells, a TMRE-MtMP Assay Kit (Abcam, Cambridge, MA, USA) was used, as previously described. In 96-well plates, 25,000 cells/mL of HT29 colon cells in DMEM were seeded. Cells were treated with a GI50 drug concentration for each complex. At 24, 48 or 72 h, cells were washed with PBS and stained with tetramethylrhodamine, ethyl ester (TMRE) (1 μM) and incubated for 30 min. TMRE was then removed, and cells were then re-washed with PBS (0.2% BSA), after which phenol red free media was added. The plates were directly scanned to measure fluorescence (expressed as RFU), using the Glo-Max®-Multimode microplate reader (Promega Corporation, Alexandra, VIC, Australia) at an excitation/emission of 549/575 nm. For the positive control, 20 μM carbonyl cyanide 4-(trifluoromethoxy) phenylhydrazone (FCCP)) was added to the cells and incubated for 10 min. The cells were washed with PBS (0.2% BSA) and stained with TMRE (1 μM) for 30 min; this was removed, and phenol red free media was added, and the final solution was scanned as mentioned above.

The test system of assay [5] is non-tumour-derived MCF10A breast line. Also on record: method as in PMID 36142383, PMID 37173934, PMID 36296713. The following applies: cited from earlier work.
Assay [6] deals with histone deacetylase (HDAC). Put plainly: Fluorometric HDAC activity assay on extracts of treated HT29 cells. The following applies: HT29 colon cells treated 72 h at GI50 concentration, lower RFU = decline in HDAC activity, HT29 extract control 5154 ± 40. The class given is cell-based, human. As for the experimental part: All values are expressed as RFU.
To study the HDAC activity in HT29 treated cells, a Fluorometric HDAC Activity Assay Kit ab156064 (Abcam, Cambridge, MA, USA) was used and all sample preparations were made based on the manufacturer’s protocol. A total of 10^6 cells/mL of HT29 cells were seeded in DMEM with serum deprivation for 18 h to synchronise the cells. […] Cells were then washed with cold PBS and resuspended in lysis buffer (10 mM Tris HCl (pH 7.5), 10 mM NaCl, 15 mM MgCl2, 250 mM sucrose, 0.5% NP-40 and 0.1 mM EGTA) and lysed on ice for 20 min. Cells were centrifuged through 4 mL of sucrose cushion (30% sucrose, 10mM Tris HCl (pH 7.5), 10 mM NaCl and 3mM MgCl2) at 1300× g for 10 min at 4 °C. Supernatant was discarded and the pellet was washed and resuspended in extraction buffer (50 mM HEPES-KOH (pH 7.5), 420 mM NaCl, 0.5 mM EDTA 2Na, 0.1 mM EGTA and 10% glycerol) and then sonicated for 30 s. Nuclei were lysed for 30 min on ice and centrifuged at 20,000× g for 30 min. The supernatant was collected, and the samples were prepared for the fluorometric assay according to the manufacturer’s protocol (Histone Deacetylase (HDAC) Activity Assay Fluorometric Kit ab156064, Abcam). The changes in the relative fluorescence intensity (expressed as RFU) were recorded each minute over 60 min using the Glo-Max®-Multimode microplate reader (Promega Corporation, Alexandra, VIC, Australia) at an excitation/emission of 355/460 nm.

Assay [7] deals with HT29 colon cells. Put plainly: DCFDA cellular ROS production assay. The following applies: GI50 drug concentration (TBHP 20 μM). The class given is cell-based, human. As to the method: All values are expressed as relative fluorescence units (RFU).
To evaluate the presence of ROS in treated cells, a DCFDA/H2DCFDA-cellular ROS Assay Kit (Abcam, Cambridge, MA, USA) was used, as previously described. A total of 25,000 cells/mL of HT29 cells in DMEM were seeded in 96-well plates. Cells were washed with 1X kit buffer, and then stained with 25 μM 2′,7′-dichlorofluorescein diacetate (DCFH-DA) and incubated for 45 min. DCFH-DA was then removed, and cells were then re-washed with 1X kit buffer, after which phenol red free media was added. Cells were then treated with a GI50 drug concentration for each complex. The plates were directly scanned to measure fluorescence (relative fluorescence units (RFU)) at the time points indicated the Glo-Max®-Multimode microplate reader (Promega Corporation, Alexandra, VIC, Australia) at an excitation/emission of 485/535 nm, which is directly correlated to the DCFH-DA that is deacetylated by cellular esterases and then oxidised by ROS to the fluorescent compound DCF. To generate the positive control (20 μM tert-butyl hydroperoxide (TBHP)), cells were washed with 1X kit buffer, and stained with DCFDA (25 μM) for 45 min; this was removed and TBHP was added in phenol red free media, and the resulting solution was scanned as described above.

Where “and” joins values, the source holds several entries; their conditions need not be identical. Equal entries are not always repeated. Where two headings read alike, the source gives them in different places.

By GI50 is commonly meant the concentration that inhibits growth by half. On to `O=C1[O][Pt]2([NH][C@@H]3CCCC[C@H]3[NH]2)[O]C1=O` (relative stereo) [Oxaliplatin, trans-L(1R,2R-diaminocyclohexane) oxalatoplatinum(II)], for which the GI50 is 800 ± 100 nM in [1]; 3000 ± 1200 nM with SJ-G2 glioblastoma; 900 ± 200 nM in the assay on BE2-C neuroblastoma; 4100 ± 500 nM in the assay on A431 skin; 500 ± 100 nM in the assay with MCF-7 breast; 1800 ± 200 nM with U87 glioblastoma. Also, the GI50 is 900 ± 200 nM in the assay on MIA pancreas; 1460 ± 320 nM in [2]; 2900 ± 400 nM in the assay on Du145 prostate; 900 ± 200 nM in the assay with HT29 colon; 1600 ± 100 nM with H460 lung; 160 ± 100 nM with A2780 ovarian.
In the case of `Cc1cc2cccnc2c2ncccc12.N[C@H]1CCCC[C@@H]1N.[OH][Pt+2][OH]` [5MESS(IV)(OH)2], the GI50 in [1] was 130 ± 22 nM; with SJ-G2 glioblastoma, 640 ± 70 nM; with BE2-C neuroblastoma it was 1400 ± 300 nM; in the assay on A431 skin, 360 ± 58 nM; in the assay on MCF-7 breast, 1200 ± 390 nM; in the assay on U87 glioblastoma, 900 ± 58 nM. Further, the GI50 in the assay with MIA pancreas was 160 ± 29 nM; in assay [2], 443 ± 81 nM; in assay [5], 130 ± 19 nM; with Du145 prostate it was 41 ± 5 nM; with HT29 colon it was 60 ± 6 nM; in the assay with H460 lung it was 60 ± 5 nM. Also, in the assay with A2780 ovarian, the GI50 was 240 ± 9 nM. Besides, the “ROS Production” value with HT29 colon cells [3] (24 h) is 234 ± 1 RFU; in the assay on HT29 colon cells [3] (48 h), 323 ± 9 RFU; with HT29 colon cells [3] (72 h), 335 ± 2 RFU. Moreover, the “MtMP Changes” value was 311 ± 3 RFU in the assay on HT29 colon cells [4] (24 h, control 542 ± 4); 291 ± 9 RFU with HT29 colon cells [4] (48 h, control 507 ± 11); 228 ± 7 RFU in the assay with HT29 colon cells [4] (72 h, control 449 ± 10). Moreover, in [6], the “HDAC Inhibition at 72 h” value turned out to be 3119 ± 9 RFU.
For `Cc1cc2cccnc2c2ncccc12.N[C@H]1CCCC[C@@H]1N.[Pt+2]` [5MESS, [Pt^II(5-Mephen)(SS-DACH)]^2+], the 50% growth inhibitory concentration (GI50) is 34 ± 2 nM in [1]; 220 ± 10 nM in the assay on SJ-G2 glioblastoma; 270 ± 38 nM in the assay on BE2-C neuroblastoma; 120 ± 25 nM with A431 skin; 200 ± 12 nM with MCF-7 breast; 320 ± 26 nM with U87 glioblastoma. For the same compound, the GI50 with MIA pancreas is 48 ± 2 nM; in assay [2], 117 ± 12 nM; in assay [5], 30 ± 2 nM; with Du145 prostate, 22 ± 3 nM; with HT29 colon, 33 ± 4 nM; with H460 lung, 41 ± 5 nM. Further, the GI50 with A2780 ovarian is 61 ± 10 nM. Besides, the “ROS Production” value in the assay on HT29 colon cells [3] (24 h) is 204 ± 4 RFU; in the assay with HT29 colon cells [3] (48 h), 205 ± 3 RFU; in the assay on HT29 colon cells [3] (72 h), 188 ± 3 RFU. Also, the “MtMP Changes” value stood at 283 ± 4 RFU in the assay on HT29 colon cells [4] (24 h, control 542 ± 4); 261 ± 9 RFU in the assay on HT29 colon cells [4] (48 h, control 507 ± 11); 189 ± 11 RFU in the assay on HT29 colon cells [4] (72 h, control 449 ± 10). In addition, the “HDAC Inhibition at 72 h” value in [6] was 2124 RFU and 2124 ± 21 RFU.
Consider `N.N.O=C([O-])C1(C(=O)[O-])CCC1.[Pt+2]` [Carboplatin, cis-diammine(1,1-cyclobutanecarboxylato)platinum(II)], for which the GI50 was > 50000 nM in [1]; 5700 ± 200 nM with SJ-G2 glioblastoma; 19000 nM in the assay on BE2-C neuroblastoma; 24000 nM with A431 skin; > 50000 nM with MCF-7 breast; > 50000 nM in the assay on U87 glioblastoma. Moreover, the GI50 in the assay on MIA pancreas was > 50000 nM; in assay [2], 32200 nM; in [5], > 50000 nM; in the assay on Du145 prostate it was 15000 nM; in the assay with HT29 colon it was > 50000 nM; in the assay on H460 lung, 14000 nM. Also, in the assay with A2780 ovarian, the GI50 is 9200 ± 2900 nM.
Turning to `N#CC(C#N)=NNc1ccc(OC(F)(F)F)cc1` [FCCP, carbonyl cyanide 4-(trifluoromethoxy) phenylhydrazone], the “MtMP Changes” value with HT29 colon cells [4] (24 h, control 542 ± 4) was found to be 234 ± 3 RFU; in the assay on HT29 colon cells [4] (48 h, control 507 ± 11) it was 151 ± 7 RFU; in the assay on HT29 colon cells [4] (72 h, control 449 ± 10), 84 ± 5 RFU.
Regarding `CC(C)(C)OO` [TBHP, tert-butyl hydroperoxide], the “ROS Production” value in the assay with HT29 colon cells [7] (24 h, control 60 ± 3) turned out to be 614 ± 21 RFU; in the assay with HT29 colon cells [7] (48 h, control 63 ± 4) it was 477 ± 23 RFU; in the assay on HT29 colon cells [7] (72 h, control 85 ± 6), 311 ± 18 RFU.
Consider `CC(/C=C/C(=O)NO)=C\[C@@H](C)C(=O)c1ccc(N(C)C)cc1` [Trichostatin A (TSA), Trichostatin A], for which the “HDAC Inhibition at 72 h” value in assay [6] amounted to 749 ± 8 RFU; in assay [6] (listed as TSA), 749 RFU.
